According to the NIST ThermoML archive (doi:10.1016/j.jct.2011.04.022):
Where “and” joins values, the source holds several entries; their conditions need not be identical. Equal entries are not always repeated. ± gives the expanded uncertainty stated by the source.

Experiments:
[1] = Crystal, Calculated from knudsen effusion weight loss
[2] = molar enthalpy of vaporization or sublimation; settings: 298.15 K; Crystal; Second Law analysis of vapor pressure data

Nc1ccccc1-n1cccc1 [1-(2-aminophenyl)pyrrole]
[1]
Settings	vapor or sublimation pressure
296.12 K	6.43e-05 ± 3.2e-06 kPa and 6.33e-05 ± 3.2e-06 kPa and 6.58e-05 ± 3.3e-06 kPa
298.22 K	8.56e-05 ± 4.3e-06 kPa and 8.51e-05 ± 4.3e-06 kPa and 8.36e-05 ± 4.2e-06 kPa
300.2 K	0.000112 ± 6e-06 kPa and 0.000108 ± 5e-06 kPa and 0.000107 ± 5e-06 kPa
302.11 K	0.000137 ± 7e-06 kPa and 0.000144 ± 7e-06 kPa
304.19 K	0.000179 ± 9e-06 kPa and 0.000182 ± 9e-06 kPa and 0.000178 ± 9e-06 kPa
306.19 K	0.00024 ± 1.2e-05 kPa and 0.000228 ± 1.1e-05 kPa and 0.000227 ± 1.1e-05 kPa
308.08 K	0.000301 ± 1.5e-05 kPa and 0.0003 ± 1.5e-05 kPa and 0.000297 ± 1.5e-05 kPa
310.2 K	0.000388 ± 1.9e-05 kPa and 0.000386 ± 1.9e-05 kPa and 0.000377 ± 1.9e-05 kPa
312.2 K	0.000503 ± 2.5e-05 kPa and 0.000481 ± 2.4e-05 kPa and 0.00048 ± 2.4e-05 kPa
314.11 K	0.000643 ± 3.2e-05 kPa and 0.000635 ± 3.2e-05 kPa and 0.000623 ± 3.1e-05 kPa
316.18 K	0.000816 ± 4.1e-05 kPa and 0.000808 ± 4e-05 kPa and 0.000788 ± 3.9e-05 kPa
318.18 K	0.001059 ± 0.00011 kPa and 0.001011 ± 0.0001 kPa and 0.000991 ± 5e-05 kPa

Settings	molar enthalpy [kcal/mol]
[2]	23.61 ± 0.191
